This is an account of results in patent publication US6482982B1, “Halogenated antituberculosis agents” (University of Sciences of Philadelphia, priority 2001, dated 2002).

Converted amounts (≈) assume the structure as drawn. “And” between values parts separate entries of the source, which are not always exact repeats. Equal entries are not always repeated. Where two headings read alike, the source gives them in different places.

For series [1], the system named is Mycobacterium tuberculosis H37Rv (ATCC 27294). Description: Primary screening of anti-mycobacterial activity (Bactec). It counts as cell-based. Set-up: % inhibition: concentration or dose not given beside the values. Conditions: for MIC: Mycobacterium tuberculosis.
Series [2] has as its system M. tuberculosis H37Rv. The experiment in a line: MIC determination by Microplate Alamar Blue Assay (MABA) against H37Rv. It counts as cell-based, Mycobacterium tuberculosis. To be noted: for MIC: Mycobacterium tuberculosis. For orientation: Alamar Blue is a resazurin reagent that responds to reducing activity.
A further series deals with M. tuberculosis Erdman. Description: MIC (MABA) against M. tuberculosis Erdman. It counts as cell-based. Conditions: Mycobacterium tuberculosis, Alamar assay.
Series [3] relates to M. tuberculosis H37Rv. The experiment in a line: Minimum bactericidal concentration (MBC) against H37Rv. It counts as cell-based, Mycobacterium tuberculosis.
The test system of series [4] is VERO cells. Conditions: for SI (selectivity index, IC50:MIC ratio): IC50 in VERO cells to MIC H37Rv.
For series [5], the system named is VERO cells. The experiment in a line: cells. To be noted: Chlorocebus sabaeus.
Series [6] deals with M. tuberculosis Erdman (ATCC 35801). The experiment in a line: Killing of M. tuberculosis Erdman in monolayers of mouse bone marrow macrophages.
Method: Compounds were then tested for killing of M. tuberculosis Erdman (ATCC 35801) in monolayers of mouse bone marrow macrophages.
[7] abbreviates: preliminary anti-TB test (primary screening), Bactec assay, read-out: MIC.
Setting [8] is: preliminary anti-TB test (primary screening), Bactec assay.
Setting [9] is: H37RV, comparison with parent drug, read-out: MIC against M. tuberculosis H37Rv (determined by MABA system).
Setting [10] is: Alamar assay, actual MIC at lower concentrations, H37Rv, read-out: MIC.
The mark [11] stands for this setting: read-out: IC50 (overt toxicity).
[12] abbreviates: read-out: IC50 (reference drugs, Comments column).

As to `COC(=O)c1cc(F)c(NC(C)=O)cc1O` [Compound 11, Methyl 4-acetamido-5-fluorosalicylate], the MIC (commonly the lowest concentration found to suppress growth) in series [1] (setting [7]) is greater than 12.5 µg/mL. In series [1] (setting [8]), the % inhibition – broadly, the percentage by which the read-out fell short of the control – turned out to be 0% and the Activity entry was “Negative”.

`Nc1cc(O)c(C(=O)O)cc1F` [Compound 12, 4-Amino-5-fluorosalicylic Acid]: the MIC in series [1] is less than 12.5 µg/mL; in the series with M. tuberculosis H37Rv [2] (setting [9]), no more than 3.13 µg/mL; in the series on M. tuberculosis H37Rv [2] (setting [10]), 6.25 µg/mL (≈ 36.5 µM); against M. tuberculosis Erdman, 12.5 µg/mL (≈ 73 µM). In addition, the “% inhibition” value in series [1] (setting [8]) came out at 94%. In addition, the Activity result in series [1] (setting [8]) is “Positive”. In addition, in the series on M. tuberculosis H37Rv [2] (Alamar assay, H37Rv), the “% inh.” value is 94%. Also, the H37Rv MBC in the series on M. tuberculosis H37Rv [3] was greater than 200 µg/mL. The “SI (selectivity index, IC50:MIC ratio)” value with VERO cells [4] is greater than 10. For the same compound, the IC50 (in general, the concentration that inhibits the measured activity by half) in the series with VERO cells [5] (setting [11]) was greater than 62.5 µg/mL.

Regarding `CC(=O)Nc1ccc(/C=N/NC(N)=S)cc1F` [Compound 16, 4-Acetamido-3-fluorobenzaldehyde thiosemicarbazone], the MIC in series [1] (setting [7]) is less than 12.5 µg/mL; with M. tuberculosis H37Rv [2] (setting [9]), no more than 0.1 µg/mL; in the series on M. tuberculosis H37Rv [2] (setting [10]), 0.2 µg/mL (≈ 0.787 µM); in the series on M. tuberculosis Erdman it was 0.2 µg/mL (≈ 0.787 µM). Moreover, in series [1] (setting [8]), the “% inhibition” value was 99% and > 90%. Besides, the Activity entry in series [1] (setting [8]) is “Positive”. Besides, the “% inh.” value in the series with M. tuberculosis H37Rv [2] (Alamar assay, H37Rv) amounted to 99%. In the series with M. tuberculosis H37Rv [2] (general statement), the “activity against M. Tuberculosis (in words)” value is “highly active”. For the same compound, the H37Rv MBC in the series with M. tuberculosis H37Rv [3] was 6.25 µg/mL. For the same compound, the “SI (selectivity index, IC50:MIC ratio)” value with VERO cells [4] and in the series with VERO cells [4] (listed as Comp. 16) was greater than 312.5 each time. For the same compound, the “toxicity (in words)” value with VERO cells [4] (general statement) is “non-toxic”. Besides, the IC50 in the series on VERO cells [5] (setting [11]) is greater than 62.5 µg/mL. The same compound gave an EC99 in series [6] (99% reduction in colony forming units at seven days, mouse bone marrow macrophages) greater than 3.2. The 90% effect level in series [6] (Mycobacterium tuberculosis, ATCC35801|ERDMAN, Bone marrow macrophage, in Mus musculus, 168 h) (EC90) was put at 1.7 µg/mL (≈ 6.69 µM).

On to `CC(=O)Nc1ccc(/C=N/NC(N)=S)c(F)c1` [Compound 17, 4-Acetamido-2-fluorobenzaldehyde thiosemicarbazone], for which, in series [1] (setting [7]), the MIC is less than 6.25 µg/mL. Also, the Activity entry in series [1] (setting [8]) is recorded as “Positive”.

As for `CC(=O)Nc1ccc(/C=N/NC(N)=S)cc1Cl` [Compound 25, 4-Acetamido-3-chlorobenzaldehyde thiosemicarbazone], the MIC in series [1] (setting [7]) was less than 6.25 µg/mL. The Activity result in series [1] (setting [8]) is recorded as “Positive”.

On to `CC(=O)Nc1ccc(/C=N/NC(N)=S)cc1Br` [Compound 29, 4-Acetamido-3-bromobenzaldehyde thiosemicarbazone], for which, in series [1] (setting [7]), the minimum inhibitory concentration (MIC) is less than 6.25 µg/mL. Moreover, the Activity entry in series [1] (setting [8]) was “Positive”.

Take `CC(=O)Nc1ccc(/C=N/NC(N)=S)cc1I` [Compound 34, 4-Acetamido-3-iodobenzaldehyde thiosemicarbazone]: the MIC in series [1] (setting [7]) is less than 6.25 µg/mL. In series [1] (setting [8]), the Activity entry was “Positive”.

As to `NNC(=O)c1ccncc1` [INH, isoniazid, reference compound], the IC50 with VERO cells [5] (setting [12]) was found to be 602 µg/mL (≈ 4390 µM).

With `Nc1ccc(C(=O)O)c(O)c1` [p-aminosalicylic acid, reference compound], the MIC in the series with M. tuberculosis H37Rv [2] (setting [9]) worked out at 1.25 µg/mL (≈ 8.16 µM).

On to `CO[C@H]1/C=C/O[C@@]2(C)Oc3c(C)c(O)c4c(O)c(c(/C=N/N5CCN(C)CC5)c(O)c4c3C2=O)NC(=O)/C(C)=C\C=C\[C@H](C)[C@H](O)[C@@H](C)[C@@H](O)[C@@H](C)[C@H](OC(C)=O)[C@@H]1C` [rifampicin, reference compound], for which the MIC in the series on M. tuberculosis H37Rv [2] (setting [10]) was 0.015 µg/mL (≈ 0.0182 µM). In addition, the IC50 in the series on VERO cells [5] (setting [12]) worked out at 77.7 µg/mL (≈ 94.4 µM).

In the case of thiacetazone [reference compound], in the series on M. tuberculosis H37Rv [2] (comparison with parent drug), the “MIC against M. tuberculosis H37Rv (determined by MABA system)” value is greater than 2.0 µg/mL.
